From US20240150293A1, “SPIROCYCLOHEXANE DERIVATIVES, PHARMACEUTICAL COMPOSITIONS CONTAINING THEM AND THEIR USES AS ANTI-APOPTOTIC INHIBITORS” (LES LABORATOIRES SERVIER, priority 2021, published 2024)
pKi: −log10 of the molar value.

These molecules were tested against Mcl-1 protein (UniProtKB Q07820) (Homo sapiens (Human), UniProt Q07820) (assay: Inhibition of Mcl-1 by the fluorescence polarisation assay (Example A, Method A)). Settings: fluorescence polarization assay.
Assay type: binding
Method in brief: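 Protein (5 nM) and fluorescein-tagged peptide tracer (1 nM) incubated with 11-point compound series for 2 h at room temperature in HEPES/NaCl/Tween 20 buffer, pH 7.4, 5% DMSO. Displacement read as decrease in polarisation; IC50 fitted by 4-parameter logistic, converted to Ki (cKi or eKi).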

Sequence of Mcl-1 protein (Q07820 whole entry): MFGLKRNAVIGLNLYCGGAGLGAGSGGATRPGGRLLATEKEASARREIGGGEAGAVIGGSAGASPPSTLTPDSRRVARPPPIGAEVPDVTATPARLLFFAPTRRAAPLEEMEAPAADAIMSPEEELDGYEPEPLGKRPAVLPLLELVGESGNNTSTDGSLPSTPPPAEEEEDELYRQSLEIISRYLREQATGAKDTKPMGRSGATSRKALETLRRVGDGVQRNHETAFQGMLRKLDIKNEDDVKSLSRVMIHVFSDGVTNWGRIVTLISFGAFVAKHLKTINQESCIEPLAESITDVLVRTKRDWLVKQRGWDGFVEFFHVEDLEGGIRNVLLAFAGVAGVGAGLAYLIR

Row | pKi | Compound
1 | 6.59 | COc1cccc(C2=Cc3ccccc3[C@]23CC[C@@](Nc2cccc(Cl)c2)(C(=O)O)CC3)c1Cl [Example 267, (1s,4s)-4-(3-chloroanilino)-2′-(2-chloro-3-methoxyphenyl)spiro[cyclohexane-1,1′-indene]-4-carboxylic acid]
2 | 5.33 | Cn1ccc2cc(C3Cc4ccccc4[C@]34CC[C@@](Nc3cccc(Cl)c3)(C(=O)O)CC4)ccc21 (stereo partly drawn) [Example 274, (1r,4r)-4-(3-chloroanilino)-2′-(1-methyl-1H-indol-5-yl)-2′,3′-dihydrospiro[cyclohexane-1,1′-indene]-4-carboxylic acid]
3 | 5.00 | O=C(O)[C@]1(Nc2cccc(Cl)c2)CC[C@]2(CC1)C(C1=CCCCC1)=Cc1ccccc12 [Example 275, (1r,4r)-4-(3-chloroanilino)-2′-(cyclohex-1-en-1-yl)spiro[cyclohexane-1,1′-indene]-4-carboxylic acid]
4 | 4.44 | CC1(C)[C@H]2C=C(C3=Cc4ccccc4[C@]34CC[C@@](Nc3cccc(Cl)c3)(C(=O)O)CC4)[C@]1(C)CC2 [Example 276, (1s,4S)-4-(3-chloroanilino)-2′-[(1R,4R)-1,7,7-trimethylbicyclo[2.2.1]hept-2-en-2-yl]spiro[cyclohexane-1,1′-indene]-4-carboxylic acid]
5 | 5.22 | O=C(O)[C@]1(Nc2cccc(Cl)c2)CC[C@]2(CC1)C(C1=CCCC1)=Cc1ccccc12 [Example 277, (1r,4r)-4-(3-chloroanilino)-2′-(cyclopent-1-en-1-yl)spiro[cyclohexane-1,1′-indene]-4-carboxylic acid]
6 | 4.93 | CC1(C)CCC=C1C1=Cc2ccccc2[C@]12CC[C@@](Nc1cccc(Cl)c1)(C(=O)O)CC2 [Example 278, (1s,4s)-4-(3-chloroanilino)-2′-(5,5-dimethylcyclopent-1-en-1-yl)spiro[cyclohexane-1,1′-indene]-4-carboxylic acid]
7 | 6.42 | COc1ccc(C2Cc3ccccc3C23CCC(Nc2cccc(Cl)c2)(C(=O)O)CC3)cc1Cl (stereo not drawn) [Example 279, (1r,4r)-4-(3-chloroanilino)-2′-(3-chloro-4-methoxyphenyl)-2′,3′-dihydrospiro[cyclohexane-1,1′-indene]-4-carboxylic acid]
8 | 6.33 | O=C(O)[C@]1(Nc2cccc(Cl)c2)CC[C@@]2(CC1)c1ccccc1C[C@H]2c1ccc2occc2c1 [Example 281, (1r,2′S,4S)-2′-(1-benzofuran-5-yl)-4-(3-chloroanilino)-2′,3′-dihydrospiro[cyclohexane-1,1′-indene]-4-carboxylic acid]
9 | 5.29 | O=C(O)[C@]1(Nc2cccc(Cl)c2)CC[C@@]2(CC1)c1ccccc1C[C@@H]2c1ccc2occc2c1 [Example 282, (1r,2′R,4R)-2′-(1-benzofuran-5-yl)-4-(3-chloroanilino)-2′,3′-dihydrospiro[cyclohexane-1,1′-indene]-4-carboxylic acid]
10 | 5.95 | O=C(O)[C@]1(Nc2cccc(Cl)c2)CC[C@]2(CC1)C(c1ccc(Cl)cc1)=Cc1ccccc12 [Example 298, (1s,4s)-4-(3-chloroanilino)-2′-(4-chlorophenyl)spiro[cyclohexane-1,1′-indene]-4-carboxylic acid]
11 | 6.39 | COc1cccc(C2=Cc3ccccc3[C@]23CC[C@@](Nc2cccc(Cl)c2)(C(=O)O)CC3)c1C [Example 299, (1s,4s)-4-(3-chloroanilino)-2′-(3-methoxy-2-methylphenyl)spiro[cyclohexane-1,1′-indene]-4-carboxylic acid]
12 | 6.76 | O=C(O)[C@]1(Nc2cccc(Cl)c2)CC[C@]2(CC1)C(c1cccc(Oc3ccccc3)c1)=Cc1ccccc12 [Example 300, (1s,4s)-4-(3-chloroanilino)-2′-(3-phenoxyphenyl)spiro[cyclohexane-1,1′-indene]-4-carboxylic acid]
13 | 6.31 | O=C(O)[C@]1(Nc2cccc(Cl)c2)CC[C@]2(CC1)C(c1cccc(Cc3ccccc3)c1)=Cc1ccccc12 [Example 301, (1s,4s)-2′-(3-benzylphenyl)-4-(3-chloroanilino)spiro[cyclohexane-1,1′-indene]-4-carboxylic acid]
14 | 5.82 | O=C(O)[C@]1(Nc2cccc(Cl)c2)CC[C@]2(CC1)C(c1cccc(OCc3ccccc3)c1)=Cc1ccccc12 [Example 302, (1s,4s)-2′-[3-(benzyloxy)phenyl]-4-(3-chloroanilino)spiro[cyclohexane-1,1′-indene]-4-carboxylic acid]
15 | 5.65 | O=C(O)[C@]1(Nc2cccc(Cl)c2)CC[C@]2(CC1)C(c1cc3ccccc3o1)=Cc1ccccc12 [Example 303, (1s,4s)-2′-(1-benzofuran-2-yl)-4-(3-chloroanilino)spiro[cyclohexane-1,1′-indene]-4-carboxylic acid]
16 | 5.76 | O=C(O)[C@]1(Nc2cccc(Cl)c2)CC[C@]2(CC1)C(c1cccc(O)c1)=Cc1ccccc12 [Example 304, (1s,4s)-4-(3-chloroanilino)-2′-(3-hydroxyphenyl)spiro[cyclohexane-1,1′-indene]-4-carboxylic acid]
17 | 6.18 | O=C(O)[C@]1(Nc2cccc(Cl)c2)CC[C@]2(CC1)C(c1ccccc1)=Cc1ccccc12 [Example 305, (1s,4s)-4-(3-chloroanilino)-2′-phenylspiro[cyclohexane-1,1′-indene]-4-carboxylic acid]
18 | 5.53 | COc1cc(OC)cc(C2=Cc3ccccc3[C@]23CC[C@@](Nc2cccc(Cl)c2)(C(=O)O)CC3)c1 [Example 308, (1s,4s)-4-(3-chloroanilino)-2′-(3,5-dimethoxyphenyl)spiro[cyclohexane-1,1′-indene]-4-carboxylic acid]
19 | 6.14 | O=C(O)[C@]1(Nc2cccc(Cl)c2)CC[C@]2(CC1)C(c1ccc(OCc3ccccc3)cc1)=Cc1ccccc12 [Example 309, (1s,4s)-2′-[4-(benzyloxy)phenyl]-4-(3-chloroanilino)spiro[cyclohexane-1,1′-indene]-4-carboxylic acid]
20 | 6.14 | COc1cc(C)cc(C2=Cc3ccccc3[C@]23CC[C@@](Nc2cccc(Cl)c2)(C(=O)O)CC3)c1 [Example 310, (1s,4s)-4-(3-chloroanilino)-2′-(3-methoxy-5-methylphenyl)spiro[cyclohexane-1,1′-indene]-4-carboxylic acid]
21 | 6.25 | O=C(O)[C@]1(Nc2cccc(Cl)c2)CC[C@]2(CC1)C(c1ccccc1Cl)=Cc1ccccc12 [Example 311, (1s,4s)-4-(3-chloroanilino)-2′-(2-chlorophenyl)spiro[cyclohexane-1,1′-indene]-4-carboxylic acid]
22 | 6.08 | O=C(O)[C@]1(Nc2cccc(Cl)c2)CC[C@]2(CC1)C(c1cccc(C(F)(F)F)c1)=Cc1ccccc12 [Example 312, (1s,4s)-4-(3-chloroanilino)-2′-[3-(trifluoromethyl)phenyl]spiro[cyclohexane-1,1′-indene]-4-carboxylic acid]
23 | 6.41 | CCOc1cccc(C2=Cc3ccccc3[C@]23CC[C@@](Nc2cccc(Cl)c2)(C(=O)O)CC3)c1 [Example 313, (1s,4s)-4-(3-chloroanilino)-2′-(3-ethoxyphenyl)spiro[cyclohexane-1,1′-indene]-4-carboxylic acid]

Row | Compound | pKi
24 | Cc1ccc(C2=Cc3ccccc3[C@]23CC[C@@](Nc2cccc(Cl)c2)(C(=O)O)CC3)cc1 [Example 297, (1s,4s)-4-(3-chloroanilino)-2′-(4-methylphenyl)spiro[cyclohexane-1,1′-indene]-4-carboxylic acid] | 5.63
